# Laboratory results published in ChEMBL document CHEMBL2034885, “Diverse heterocyclic scaffolds as allosteric inhibitors of AKT” (J Med Chem, 2012).
# Active and inactive are the calls of the source. No cut-off for these calls is given here.
# What was measured:
# [1] = Fraction unbound in Han Wistar rat plasma; format: ADME, cell-free
# [2] = system: Hepatocyte; assay: Intrinsic clearance in human hepatocytes assessed per 10^-6 cells
# [3] = system: Hepatocyte; assay: Intrinsic clearance in Han Wistar rat hepatocytes assessed per 10^-6 cells
# [4] = Inhibition of AKT phosphorylation at Ser473 in human MDA-MB-468 cells; format: cell-based
# [5] = Inhibition of AKT phosphorylation at Thr308 in human BT474 cells; format: cell-based; conditions: BT-474
# [6] = Volume of distribution at steady state in Han Wistar rat; format: ADME, organism-based; conditions: in vivo, read-out: Vdss
# [7] = Oral bioavailability in Han Wistar rat; format: ADME, organism-based; conditions: in vivo
# [8] = Aqueous solubility at pH 7.4
# [9] = Blood clearance in iv dosed Han Wistar rat
# [10] = Lipophilicity, log D of the compound; conditions: octanol/water
# [11] = molecular target: RAC-alpha serine/threonine-protein kinase (Homo sapiens, UniProt P31749); assay: Inhibition of AKT1
# [12] = system: Mus musculus; assay: Inhibition of AKT phosphorylation at S473 in human BT474c cells xenografted in nude mouse at 100 mg/kg, po after 24 hrs; format: functional, organism-based; parameters: dose 100 mg/kg
# [13] = system: BT474c; assay: Inhibition of AKT phosphorylation at Ser473 in human BT474c cells at 0.01 uM to 10 uM after 24 hrs; format: cell-based
# [14] = system: BT474c; assay: Antitumor activity against human BT474c cells xenografted in nude mouse assessed as tumor growth inhibition at 200 mg/kg, po qd for 21 days; format: functional, organism-based; parameters: dose 200 mg/kg
# [15] = system: Mus musculus; assay: Inhibition of AKT-mediated GSK3beta phosphorylation in human BT474c cells xenografted in nude mouse at 200 mg/kg, po after 4 hrs; format: functional, organism-based; parameters: dose 200 mg/kg
# [16] = system: BT474c; assay: Inhibition of AKT-mediated PRAS40 phosphorylation at T246 in human BT474c cells at 0.01 uM to 10 uM after 24 hrs; format: cell-based
# [17] = system: Mus musculus; assay: Inhibition of AKT phosphorylation at S473 in human BT474c cells xenografted in nude mouse at 200 mg/kg, po after 4 hrs; format: functional, organism-based; parameters: dose 200 mg/kg
# [18] = system: BT474c; assay: Antitumor activity against human BT474c cells xenografted in po dosed nude mouse assessed as tumor growth inhibition administered qd for 21 days; format: functional, organism-based
# [19] = system: Mus musculus; assay: Inhibition of AKT-mediated GSK3beta phosphorylation in human BT474c cells xenografted in nude mouse at 100 mg/kg, po after 4 hrs; format: functional, organism-based; parameters: dose 100 mg/kg
# [20] = system: Mus musculus; assay: Inhibition of AKT-mediated GSK3beta phosphorylation in human BT474c cells xenografted in nude mouse at 100 mg/kg, po after 24 hrs; format: functional, organism-based; parameters: dose 100 mg/kg
# [21] = system: BT474c; assay: Inhibition of AKT phosphorylation at Thr308 in human BT474c cells at 0.01 uM to 10 uM after 24 hrs; format: cell-based
# [22] = system: Mus musculus; assay: Inhibition of AKT phosphorylation at S473 in human BT474c cells xenografted in nude mouse at 100 mg/kg, po after 4 hrs; format: functional, organism-based; parameters: dose 100 mg/kg
# [23] = system: BT474c; assay: Inhibition of AKT-mediated ribosomal S6 protein phosphorylation at S235/236 in human BT474c cells at 0.01 uM to 10 uM after 24 hrs; format: cell-based
# [24] = system: Mus musculus; assay: Inhibition of AKT-mediated GSK3beta phosphorylation in human BT474c cells xenografted in nude mouse at 200 mg/kg, po after 24 hrs; format: functional, organism-based; parameters: dose 200 mg/kg
# [25] = system: Mus musculus; assay: Inhibition of AKT phosphorylation at S473 in human BT474c cells xenografted in nude mouse at 200 mg/kg, po after 24 hrs; format: functional, organism-based; parameters: dose 200 mg/kg
# Sequence of RAC-alpha serine/threonine-protein kinase (P31749 whole entry): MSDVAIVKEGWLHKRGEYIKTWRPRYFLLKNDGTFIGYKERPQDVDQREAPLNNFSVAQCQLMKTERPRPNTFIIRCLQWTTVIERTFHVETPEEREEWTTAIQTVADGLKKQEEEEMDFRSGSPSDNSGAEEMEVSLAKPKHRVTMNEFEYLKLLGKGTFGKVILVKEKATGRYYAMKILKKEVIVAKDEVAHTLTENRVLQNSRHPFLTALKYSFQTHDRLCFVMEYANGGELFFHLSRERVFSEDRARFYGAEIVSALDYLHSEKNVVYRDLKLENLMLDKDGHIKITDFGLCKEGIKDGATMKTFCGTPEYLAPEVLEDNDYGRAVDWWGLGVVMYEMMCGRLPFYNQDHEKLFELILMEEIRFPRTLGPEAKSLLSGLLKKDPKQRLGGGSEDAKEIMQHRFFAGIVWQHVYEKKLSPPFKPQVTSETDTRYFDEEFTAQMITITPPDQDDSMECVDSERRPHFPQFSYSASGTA
SMILES,IC50 [4],IC50 [5],solubility [8],logD [10],IC50 [11],further results
NC1(c2ccc(-c3ncc4nccn4c3-c3ccccc3)cc2)CCC1,365 nM,386 nM,2500 µM,1.3,1260 nM,fraction unbound [1]: 0.371; CLH [2]: 3 µL/min; CLH [3]: 16 µL/min; Vd [6]: 10.3 L/kg; bioavailability [7]: 30%; clearance ([9]; whole blood): 62 mL/min/kg
NC1(c2ccc(-c3ncc4ccccc4c3-c3ccccc3)cc2)CCC1,179 nM,535 nM,,,301 nM,
NC(=O)c1ccn2c(-c3ccccc3)c(-c3ccc(C4(N)CCC4)cc3)nc2c1,92 nM,82 nM,110 µM,2,348 nM,
NC(=O)c1cnc(-c2ccc(C3(N)CCC3)cc2)c(-c2ccccc2)c1,322 nM,422 nM,,,1040 nM,fraction unbound [1]: 0.419; inhibition [12]: Active; inhibition [13]: Active; growth inhibition (GI) [14]: Active; inhibition [15]: Active; inhibition [16]: Active; inhibition [17]: Active; growth inhibition (GI) [18]: Dose-dependent effect; CLH [2]: 3 µL/min; CLH [3]: 4 µL/min; inhibition [19]: Active; inhibition [20]: Active; Vd [6]: 11.1 L/kg; inhibition [21]: Active; inhibition [22]: Active; inhibition [23]: Active; bioavailability [7]: 48%; clearance ([9]; whole blood): 21 mL/min/kg; inhibition [24]: Active; inhibition [25]: Active
NC1(c2ccc(-c3c(-c4ccccc4)ccc4ncnn34)cc2)CCC1,293 nM,369 nM,,,2140 nM,
NC1(c2ccc(-c3nn4ccnc4cc3-c3ccccc3)cc2)CCC1,216 nM,391 nM,,,528 nM,fraction unbound [1]: 0.123; CLH [2]: 8 µL/min; CLH [3]: 274 µL/min; Vd [6]: 2.3 L/kg; bioavailability [7]: 0%; clearance ([9]; in vivo): 57 mL/min/kg
NC1(c2ccc(-c3nn4ccccc4c3-c3ccccc3)cc2)CCC1,151 nM,205 nM,,,199 nM,Vd [6]: 8 L/kg; bioavailability [7]: 0%; clearance ([9]; whole blood): 171 mL/min/kg
NC1(c2ccc(-c3c(-c4ccccc4)ccn4ncnc34)cc2)CCC1,661 nM,479 nM,1000 µM,1.7,2670 nM,
NC1(c2ccc(-c3ncc4cnccc4c3-c3ccccc3)cc2)CCC1,37 nM,48 nM,2200 µM,2.2,117 nM,fraction unbound [1]: 0.13; CLH [2]: 300 µL/min; Vd [6]: 0.3 L/kg; clearance ([9]; whole blood): 40 mL/min/kg
NC1(c2ccc(-c3ncc4cccnc4c3-c3ccccc3)cc2)CCC1,104 nM,167 nM,2000 µM,1.7,465 nM,
NC1(c2ccc(-c3nn4ccc(=O)nc4cc3-c3ccccc3)cc2)CCC1,2170 nM,1620 nM,1900 µM,0.2,8660 nM,
NC1(c2ccc(-c3c(-c4ccccc4)ccn4ccnc34)cc2)CCC1,388 nM,324 nM,,,1810 nM,
NC1(c2ccc(-c3nc4ccccn4c3-c3ccccc3)cc2)CCC1,124 nM,182 nM,1900 µM,2.8,387 nM,fraction unbound [1]: 0.068; CLH [2]: 18 µL/min; CLH [3]: 291 µL/min; Vd [6]: 10.3 L/kg; bioavailability [7]: 36%; clearance ([9]; whole blood): 41 mL/min/kg
NC1(c2ccc(-c3nn4cccc4cc3-c3ccccc3)cc2)CCC1,1230 nM,2430 nM,27 µM,3.3,926 nM,
Cn1cnc2c(-c3ccc(C4(N)CCC4)cc3)c(-c3ccccc3)ccc21,359 nM,343 nM,,,2800 nM,
NC1(c2ccc(-c3c(-c4ccccc4)ncc4nccn34)cc2)CCC1,2480 nM,2180 nM,2500 µM,1.7,5400 nM,
NC1(c2ccc(-n3c(-c4ccccc4)nc4ccccc4c3=O)cc2)CCC1,7730 nM,5900 nM,1400 µM,1.6,41700 nM,
NC1(c2ccc(-c3ncc4ncccc4c3-c3ccccc3)cc2)CCC1,47 nM,89 nM,,,188 nM,
NC1(c2ccc(-c3nc4ccccc4cc3-c3ccccc3)cc2)CCC1,250 nM,557 nM,290 µM,3.6,243 nM,fraction unbound [1]: 0.011; CLH [3]: 148 µL/min; Vd [6]: 3.1 L/kg; bioavailability [7]: 0%; clearance ([9]; in vivo): 26 mL/min/kg
NC1(c2ccc(-c3nc4ccccc4c(=O)n3-c3ccccc3)cc2)CCC1,2080 nM,2620 nM,2300 µM,1.5,7020 nM,
NC1(c2ccc(-c3ncc4cccn4c3-c3ccccc3)cc2)CCC1,483 nM,604 nM,1500 µM,2.5,787 nM,
CCn1cnc2cnc(-c3ccc(C4(N)CCC4)cc3)c(-c3ccccc3)c21,1540 nM,1200 nM,,2,8980 nM,
NC1(c2ccc(-c3c(-c4ccccc4)ccc4ccnn34)cc2)CCC1,824 nM,1190 nM,,,2720 nM,
NC1(c2ccc(-c3ncc4ccncc4c3-c3ccccc3)cc2)CCC1,98 nM,54 nM,1400 µM,2.2,193 nM,fraction unbound [1]: 0.105
